System: hepatocytes
Assay: RNA-seq of hepatocytes treated with Phase III failure compounds
Details: hepatocytes
Description: RNA-seq was performed to determine the effects of the compounds on hepatocytes.
Significance was determined by the criteria of FPKM≥0.5, a log 2(fold-change)≥1, and a […].

Which results are given for `CCC(CC)[C@H](NC(C)=O)[C@@H]1[C@H](O)[C@@H](C(=O)O)C[C@H]1NC(=N)N.O.O.O` [peramivir (trihydrate), peramivir]?
RNA-seq results, GPD1 expression (gene GPD1): 0.37; RNA-seq results: GPD1 expression (gene GPD1): 0; RNA-seq results, GPHN expression (gene GPHN): −0.14; RNA-seq results: GPHN expression (gene GPHN): 0.06; RNA-seq results, GTPBP3 expression (gene GTPBP3): 0.32; RNA-seq results: GTPBP3 expression (gene GTPBP3): 0.07; RNA-seq results, GUSB expression (gene GUSB): −0.26; RNA-seq results: GUSB expression (gene GUSB): 0.23; RNA-seq results, GYG1 expression (gene GYG1): −0.32; RNA-seq results: GYG1 expression (gene GYG1): 0.02; RNA-seq results, GYS1 expression (gene GYS1): 0.05; RNA-seq results: GYS1 expression (gene GYS1): 0.12; RNA-seq results, GYS2 expression (gene GYS2): −0.03; RNA-seq results: GYS2 expression (gene GYS2): −0.13; RNA-seq results, H6PD expression (gene H6PD): 0.18; RNA-seq results: H6PD expression (gene H6PD): −0.01; RNA-seq results, H19 expression (gene H19): −0.21; RNA-seq results: H19 expression (gene H19): 0.34; RNA-seq results, HAL expression (gene HAL): −0.09; RNA-seq results: HAL expression (gene HAL): −0.17; RNA-seq results, HAX1 expression (gene HAX1): −0.12; RNA-seq results: HAX1 expression (gene HAX1): 0.15; RNA-seq results, HBA1 expression (gene HBA1): 1.07; RNA-seq results: HBA1 expression (gene HBA1): 0.04; RNA-seq results, HBB expression (gene HBB): 0.07; RNA-seq results: HBB expression (gene HBB): −0.54; RNA-seq results, HGD expression (gene HGD): −0.10; RNA-seq results: HGD expression (gene HGD): −0.18; RNA-seq results, HLA-B expression (gene HLA-B): 0.05; RNA-seq results: HLA-B expression (gene HLA-B): 0.18; RNA-seq results, HMBS expression (gene HMBS): −0.09; RNA-seq results: HMBS expression (gene HMBS): 0; RNA-seq results, HMGCR expression (gene HMGCR): −0.11; RNA-seq results: HMGCR expression (gene HMGCR): −0.29; RNA-seq results, HMGCS2 expression (gene HMGCS2): −0.21; RNA-seq results: HMGCS2 expression (gene HMGCS2): −0.28; RNA-seq results, HMOX1 expression (gene HMOX1): 0.22; RNA-seq results: HMOX1 expression (gene HMOX1): 1.28; RNA-seq results, HNF1A expression (gene HNF1A): 0.33; RNA-seq results: HNF1A expression (gene HNF1A): 0.11; RNA-seq results, HNF1B expression (gene HNF1B): −0.02; RNA-seq results: HNF1B expression (gene HNF1B): −0.15; RNA-seq results, HNF4A expression (gene HNF4A): 0.30; RNA-seq results: HNF4A expression (gene HNF4A): −0.01; RNA-seq results, HOGA1 expression (gene HOGA1): 0.80; RNA-seq results: HOGA1 expression (gene HOGA1): 0.01; RNA-seq results, HPD expression (gene HPD): 0.10; RNA-seq results: HPD expression (gene HPD): 0.06; RNA-seq results, HPGD expression (gene HPGD): −0.69; RNA-seq results: HPGD expression (gene HPGD): −0.7; RNA-seq results, HPS4 expression (gene HPS4): −0.04; RNA-seq results: HPS4 expression (gene HPS4): 0.26; RNA-seq results, HPS5 expression (gene HPS5): −0.12; RNA-seq results: HPS5 expression (gene HPS5): −0.18; RNA-seq results, HPS6 expression (gene HPS6): 0.31; RNA-seq results: HPS6 expression (gene HPS6): 0.23; RNA-seq results, HPX expression (gene HPX): −0.17; RNA-seq results: HPX expression (gene HPX): 0.2; RNA-seq results, HRAS expression (gene HRAS): −0.15; RNA-seq results: HRAS expression (gene HRAS): 0.31; RNA-seq results, HRSP12 expression (gene HRSP12): −0.47; RNA-seq results: HRSP12 expression (gene HRSP12): −0.3; RNA-seq results, HSD3B7 expression (gene HSD3B7): −0.05; RNA-seq results: HSD3B7 expression (gene HSD3B7): 0.26; RNA-seq results, HSD17B10 expression (gene HSD17B10): −0.09; RNA-seq results: HSD17B10 expression (gene HSD17B10): 0.15; RNA-seq results: HYLS1 expression (gene HYLS1): −0.60; RNA-seq results: ID1 expression (gene ID1): 0.13; RNA-seq results: IDH1 expression (gene IDH1): −0.29; RNA-seq results: IDH2 expression (gene IDH2): −0.11; RNA-seq results: IDUA expression (gene IDUA): 0.23; RNA-seq results: IFIH1 expression (gene IFIH1): −0.40; RNA-seq results: IFNAR2 expression (gene IFNAR2): −0.51; RNA-seq results: IFT27 expression (gene IFT27): −0.11; RNA-seq results: IFT80 expression (gene IFT80): 0.00; RNA-seq results: IFT122 expression (gene IFT122): −0.15; RNA-seq results: IFT140 expression (gene IFT140): 0.44; RNA-seq results: IFT172 expression (gene IFT172): 0.36; RNA-seq results: IGFALS expression (gene IGFALS): 0.33; RNA-seq results: IKBKG expression (gene IKBKG): 0.48; RNA-seq results: IL1RN expression (gene IL1RN): −0.20; RNA-seq results: IL2RG expression (gene IL2RG): −0.08; RNA-seq results: INSR expression (gene INSR): 0.01; RNA-seq results: INVS expression (gene INVS): −0.15; RNA-seq results: ISYNA1 expression (gene ISYNA1): 0.20; RNA-seq results: ITGB3 expression (gene ITGB3): 0.02; RNA-seq results: IYD expression (gene IYD): −0.15; RNA-seq results: JAG1 expression (gene JAG1): 0.14; RNA-seq results: JAK2 expression (gene JAK2): −0.26; RNA-seq results: KCTD7 expression (gene KCTD7): 0.26; RNA-seq results: KCTD11 expression (gene KCTD11): 0.53; RNA-seq results: KHK expression (gene KHK): 0.13; RNA-seq results: KIAA0586 expression (gene KIAA0586): −0.32; RNA-seq results: KMT2D expression (gene KMT2D): 0.57; RNA-seq results: KPTN expression (gene KPTN): 0.03; RNA-seq results: KRIT1 expression (gene KRIT1): −0.32; RNA-seq results: KRT18 expression (gene KRT18): 0.14; RNA-seq results: KYNU expression (gene KYNU): −0.28; RNA-seq results: LAMB2 expression (gene LAMB2): 0.14; RNA-seq results: LCAT expression (gene LCAT): 0.18; RNA-seq results: LDHB expression (gene LDHB): −0.23; RNA-seq results: LDLR expression (gene LDLR): 0.23; RNA-seq results: LDLRAP1 expression (gene LDLRAP1): 0.03; RNA-seq results: LIPC expression (gene LIPC): −0.23; RNA-seq results: LIPT1 expression (gene LIPT1): −0.63; RNA-seq results: LMNB2 expression (gene LMNB2): 0.36; RNA-seq results: LPA expression (gene LPA): 0.04; RNA-seq results: LPIN1 expression (gene LPIN1): −0.08; RNA-seq results: LPIN2 expression (gene LPIN2): 0.08; RNA-seq results: LRBA expression (gene LRBA): −0.14; RNA-seq results: LRP5 expression (gene LRP5): 0.14; RNA-seq results: LYRM4 expression (gene LYRM4): −0.40; RNA-seq results: LYST expression (gene LYST): −0.05; RNA-seq results: MAN1A1 expression (gene MAN1A1): −0.36; RNA-seq results: MAN2B1 expression (gene MAN2B1): 0.14; RNA-seq results: MAOB expression (gene MAOB): −0.07; RNA-seq results: MAT1A expression (gene MAT1A): 0.14; RNA-seq results: MBL2 expression (gene MBL2): −0.25
